1 molecule from patent US20160324152A1, “Compositions And Methods For Killing And/Or Immobilizing Insects” (The United States of America, as represented by the …, priority 2015, published 2016) can be followed below.

The assay deals with Solenopsis invicta workers. The conditions noted are these: topical. The procedure:
Topical Bioassay: Mortalities of S. invicta workers after topical treatment with Ethal TDA surfactants were determined. For ease of handling and obtaining uniform body weight, only large workers were used in the bioassay. Acetone was used as a solvent. The solution (10% w/v) was applied with a 0.779 μl capillary tube. All surfactants were tested at a concentration of 77.9 μg/ant. In the control, ants were only treated with 0.779 μl acetone. Treated ants were placed in a 30-ml capped cup at room temperature (˜23° C.) and dead ants were counted at 24 h. Three colonies were originally tested. There were 3-6 replicates for each colony. A single replicate consisted of 17 to 20 ants. In order to assess the mortality at 48 h, another three colonies were tested. For these three colonies, dead ants were counted at both 24 h and 48 h. Mortalities were adjusted using Abbott's formula (Abbott, W. S., J. Econ. Entomol., 18: 265-267 (1925)) before being used in statistical analysis. For analyzing 24 h mortality, data for all six colonies were used.
We also tested the toxicity of piperonyl butoxide (PBO) against red imported fire ants. […] Topical bioassay as described above was used: Mortalities of S. invicta workers after topical treatment with PBO were determined. […] Treated ants were placed in a 30-ml capped cup at room temperature (˜23° C.) and dead ants were counted at 24 h. […]

The structures appear in SMILES notation. Read-outs that look alike come from different tables or passages of the source.

Take `CCCCCCCCCCCC(C)=O` [2-tridecanone]: the LD50 reads like this: (colony 288, PBO 0 μg/ant) 18.96 μg/ant; (colony 295, PBO 0 μg/ant) 22.82 μg/ant.
